SMILES strings stand for the structures. Structures can show the parent of a compound that is named as a salt.

Experimental findings from patent publication US9580413B2, “Substituted pyrrolidines as ROS tyrosine kinase inhibitors” (NIPPON SHINYAKU CO., LTD., priority 2012, dated 2017) are described below.

For assay [1], the target named is T1, FIG-ROS/BaF3 cell (Homo sapiens, UniProt P08922).
T1 construct: fused on or other part: Q9HD26 (Golgi-associated PDZ and coiled-coil motif-containing protein)
The assay can be described thus: Proliferation inhibitory activity test against FIG-ROS/BaF3 cell. It is filed as cell-based. To be noted: 3 days incubation, cell counting kit; read-out: Proliferation inhibitory activity against FIG-ROS/BaF3 cell (IC50). As for the experimental part: A BaF3 cell which had been transformed by introducing the FIG-ROS fusion gene (derived from U118MG human glioma cell) (FIG-ROS/BaF3 Cell) was prepared on a culture medium, seeded on a 96-well plate in the number of 1×10^3/100 μL per well, and then allowed to stand in a CO2 incubator (at 37° C. and 5% CO2). As the culture medium, 10% FBS (fetal bovine serum)-incorporated RPMI-1640 was used.
2. Proliferation Inhibitory Activity Test:
A test substance was dissolved in dimethyl sulfoxide (DMSO) to 10 mM and further diluted with DMSO to 100-fold to prepare a 100 μM solution. This was diluted with a 1% DMSO-incorporated medium to concentrations of 10-fold of the concentration to be measured (10,000, 1,000, 100, 10, and 1 nM). Each of the medicine solutions was added at 11 μL per well and mixed. To a control having no medicine added thereto, a 1% DMSO-incorporated medium was added, and incubated in a CO2 incubator (at 37° C. and 5% CO2) for 3 days. After completion of the incubation, the number of live cells was counted using a cell counting kit. First of all, each cell counting kit solution was added at 5 μL per well and mixed, and incubated in a CO2 incubator (at 37° C. and 5% CO2) for 4 hours. An absorbance at 450 nm was measured with a microplate reader (Model 3550, manufactured by BIO-RAD, Benchmark, manufactured by BIO-RAD, or iMARK, manufactured by BIO-RAD) with a reference wavelength of 650 nm.
(§1) 3. Analysis of Measurement Results:
A non-linear regression analysis was performed for the measured absorbance with an SAS system (SAS Institute Inc.), and a concentration of each of the test substances of inhibiting the cell proliferation at 50% (IC50) was calculated. The proliferation inhibitory activity (IC50, nM) of each of the test substances against the FIG-ROS/BaF3 cell is shown in Table 9.
(In general: Tetrazolium assays rely on reduction of a dye to a coloured formazan, in cell work by metabolically active cells.)

The target in assay [2] is T2, JAK2 tyrosine kinase (Homo sapiens, UniProt O60674).
T2 construct: purchased Carna Biosciences, Inc
The assay can be described thus: JAK2 tyrosine kinase inhibitory activity test (ELISA). In kind it is biochemical, humans. Particulars: 25 μM ATP substrate solution, 30° C., one hour. As for the experimental part:
(§2) 1. Preparation of Test Substance:
(§3) A test substance was dissolved in dimethyl sulfoxide (DMSO) to 10 mM and further diluted with DMSO to concentrations of 100-fold of the concentrations to be measured (100, 10, 1, 0.1, and 0.01 μM). Furthermore, the resultant was diluted with an assay buffer to 20-fold, thereby preparing a solution as a test substance solution. A solution prepared by diluting DMSO with an assay buffer to 20-fold was used as a negative control. A buffer containing 15 mM Tris-Cl (pH 7.5), 0.01 (v/v) % Tween-20, and 1 mM dithiothreitol was used as the assay buffer.
(§4) 2. Measurement of ROS Tyrosine Kinase Activity and JAK2 Tyrosine Kinase Activity:
(§5) The activity was measured by adopting the ELISA method. […] Finally, an ROS kinase or a JAK2 kinase (derived from humans, Carna Biosciences, Inc.) (diluted with the assay buffer to 0.25 nM) was added to the plate at 20 μL per well, and the resulting mixture was stirred. A reaction was performed at 30° C. for one hour. After the plate was washed 4 times with a washing buffer (50 mM Tris-Cl (pH 7.5), 150 mM NaCl, and 0.02 (v/v) % Tween-20), a blocking buffer (0.1% bovine serum albumin, 50 mM Tris-Cl (pH 7.5), 150 mM NaCl, and 0.02 (v/v) % Tween-20) was added to the plate at 150 μL per well, and incubated at 30° C. for 30 minutes. The blocking buffer was then removed, and a horse radish peroxidase-labeled anti-phosphorylated tyrosine antibody (BD Biosciences, Inc.) (diluted with the blocking buffer to 10,000-fold) was added to the plate at 100 μL per well, and the plate was incubated at 30° C. for 30 minutes. After the plate was washed 4 times with the washing buffer, a 3,3′,5,5′-tetramethylbenzidine solution (Sigma-Aldrich Co., Ltd.) was added to the plate at 100 μL per well to develop the color for 10 minutes. The reaction was stopped by adding 0.1 M sulfuric acid at 100 μL per well. An absorbance at 450 nm was measured with a microplate reader (Model 3550, manufactured by BIO-RAD, Benchmark, manufactured by BIO-RAD, or iMARK, manufactured by BIO-RAD).
as §1
(§6) A non-linear regression analysis was performed for the measured absorbance with an SAS system (SAS Institute Inc.), and a concentration of each of the test substances of inhibiting the ROS tyrosine kinase activity or JAK2 tyrosine kinase activity at 50% (IC50) was calculated. The inhibitory activity (IC50, nM) of each of the test substances against the ROS tyrosine kinase or JAK2 tyrosine kinase is shown in Tables 6 to 8.
On the technique in general: An ELISA detects its analyte on a solid surface through an enzyme-linked reagent.

For assay [3], the target named is T3, ROS tyrosine kinase (Homo sapiens, UniProt P08922).
T3 construct: purchased Carna Biosciences, Inc
The experiment in a line: ROS tyrosine kinase inhibitory activity test (ELISA). Particulars: 25 μM ATP substrate solution, 30° C., one hour. In kind it is biochemical, humans. As for the experimental part:
as §2, §3, §4, §5, §1, §6

T2 sequence (O60674 whole entry): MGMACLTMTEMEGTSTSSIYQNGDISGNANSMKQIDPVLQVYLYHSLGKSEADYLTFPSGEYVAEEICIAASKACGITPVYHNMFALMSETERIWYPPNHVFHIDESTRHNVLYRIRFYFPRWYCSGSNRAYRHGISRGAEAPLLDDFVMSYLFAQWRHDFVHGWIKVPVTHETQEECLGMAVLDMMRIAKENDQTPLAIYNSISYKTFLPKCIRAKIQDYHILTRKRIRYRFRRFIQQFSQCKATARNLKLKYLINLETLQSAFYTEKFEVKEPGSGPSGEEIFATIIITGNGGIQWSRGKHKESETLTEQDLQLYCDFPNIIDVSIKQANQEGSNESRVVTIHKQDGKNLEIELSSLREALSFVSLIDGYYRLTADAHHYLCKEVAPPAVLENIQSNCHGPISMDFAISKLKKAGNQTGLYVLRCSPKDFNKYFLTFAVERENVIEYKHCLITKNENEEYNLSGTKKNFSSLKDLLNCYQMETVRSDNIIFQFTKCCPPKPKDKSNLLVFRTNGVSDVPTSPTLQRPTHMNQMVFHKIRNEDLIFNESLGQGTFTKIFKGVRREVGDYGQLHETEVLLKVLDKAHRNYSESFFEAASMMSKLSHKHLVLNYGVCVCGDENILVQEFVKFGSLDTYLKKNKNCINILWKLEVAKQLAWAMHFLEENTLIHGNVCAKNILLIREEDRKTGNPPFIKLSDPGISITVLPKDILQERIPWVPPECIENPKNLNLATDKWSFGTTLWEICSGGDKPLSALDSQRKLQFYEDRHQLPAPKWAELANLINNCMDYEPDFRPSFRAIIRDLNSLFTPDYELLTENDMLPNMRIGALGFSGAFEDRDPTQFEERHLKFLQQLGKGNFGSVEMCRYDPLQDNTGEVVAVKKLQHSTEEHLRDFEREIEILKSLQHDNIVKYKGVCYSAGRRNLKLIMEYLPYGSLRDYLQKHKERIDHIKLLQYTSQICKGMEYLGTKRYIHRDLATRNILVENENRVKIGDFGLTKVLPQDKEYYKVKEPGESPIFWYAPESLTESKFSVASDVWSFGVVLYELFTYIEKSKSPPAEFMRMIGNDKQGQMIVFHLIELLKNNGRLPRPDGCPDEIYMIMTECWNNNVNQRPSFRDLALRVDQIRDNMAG
T1 sequence (P08922 whole entry, change not shown, the tested form may be a part): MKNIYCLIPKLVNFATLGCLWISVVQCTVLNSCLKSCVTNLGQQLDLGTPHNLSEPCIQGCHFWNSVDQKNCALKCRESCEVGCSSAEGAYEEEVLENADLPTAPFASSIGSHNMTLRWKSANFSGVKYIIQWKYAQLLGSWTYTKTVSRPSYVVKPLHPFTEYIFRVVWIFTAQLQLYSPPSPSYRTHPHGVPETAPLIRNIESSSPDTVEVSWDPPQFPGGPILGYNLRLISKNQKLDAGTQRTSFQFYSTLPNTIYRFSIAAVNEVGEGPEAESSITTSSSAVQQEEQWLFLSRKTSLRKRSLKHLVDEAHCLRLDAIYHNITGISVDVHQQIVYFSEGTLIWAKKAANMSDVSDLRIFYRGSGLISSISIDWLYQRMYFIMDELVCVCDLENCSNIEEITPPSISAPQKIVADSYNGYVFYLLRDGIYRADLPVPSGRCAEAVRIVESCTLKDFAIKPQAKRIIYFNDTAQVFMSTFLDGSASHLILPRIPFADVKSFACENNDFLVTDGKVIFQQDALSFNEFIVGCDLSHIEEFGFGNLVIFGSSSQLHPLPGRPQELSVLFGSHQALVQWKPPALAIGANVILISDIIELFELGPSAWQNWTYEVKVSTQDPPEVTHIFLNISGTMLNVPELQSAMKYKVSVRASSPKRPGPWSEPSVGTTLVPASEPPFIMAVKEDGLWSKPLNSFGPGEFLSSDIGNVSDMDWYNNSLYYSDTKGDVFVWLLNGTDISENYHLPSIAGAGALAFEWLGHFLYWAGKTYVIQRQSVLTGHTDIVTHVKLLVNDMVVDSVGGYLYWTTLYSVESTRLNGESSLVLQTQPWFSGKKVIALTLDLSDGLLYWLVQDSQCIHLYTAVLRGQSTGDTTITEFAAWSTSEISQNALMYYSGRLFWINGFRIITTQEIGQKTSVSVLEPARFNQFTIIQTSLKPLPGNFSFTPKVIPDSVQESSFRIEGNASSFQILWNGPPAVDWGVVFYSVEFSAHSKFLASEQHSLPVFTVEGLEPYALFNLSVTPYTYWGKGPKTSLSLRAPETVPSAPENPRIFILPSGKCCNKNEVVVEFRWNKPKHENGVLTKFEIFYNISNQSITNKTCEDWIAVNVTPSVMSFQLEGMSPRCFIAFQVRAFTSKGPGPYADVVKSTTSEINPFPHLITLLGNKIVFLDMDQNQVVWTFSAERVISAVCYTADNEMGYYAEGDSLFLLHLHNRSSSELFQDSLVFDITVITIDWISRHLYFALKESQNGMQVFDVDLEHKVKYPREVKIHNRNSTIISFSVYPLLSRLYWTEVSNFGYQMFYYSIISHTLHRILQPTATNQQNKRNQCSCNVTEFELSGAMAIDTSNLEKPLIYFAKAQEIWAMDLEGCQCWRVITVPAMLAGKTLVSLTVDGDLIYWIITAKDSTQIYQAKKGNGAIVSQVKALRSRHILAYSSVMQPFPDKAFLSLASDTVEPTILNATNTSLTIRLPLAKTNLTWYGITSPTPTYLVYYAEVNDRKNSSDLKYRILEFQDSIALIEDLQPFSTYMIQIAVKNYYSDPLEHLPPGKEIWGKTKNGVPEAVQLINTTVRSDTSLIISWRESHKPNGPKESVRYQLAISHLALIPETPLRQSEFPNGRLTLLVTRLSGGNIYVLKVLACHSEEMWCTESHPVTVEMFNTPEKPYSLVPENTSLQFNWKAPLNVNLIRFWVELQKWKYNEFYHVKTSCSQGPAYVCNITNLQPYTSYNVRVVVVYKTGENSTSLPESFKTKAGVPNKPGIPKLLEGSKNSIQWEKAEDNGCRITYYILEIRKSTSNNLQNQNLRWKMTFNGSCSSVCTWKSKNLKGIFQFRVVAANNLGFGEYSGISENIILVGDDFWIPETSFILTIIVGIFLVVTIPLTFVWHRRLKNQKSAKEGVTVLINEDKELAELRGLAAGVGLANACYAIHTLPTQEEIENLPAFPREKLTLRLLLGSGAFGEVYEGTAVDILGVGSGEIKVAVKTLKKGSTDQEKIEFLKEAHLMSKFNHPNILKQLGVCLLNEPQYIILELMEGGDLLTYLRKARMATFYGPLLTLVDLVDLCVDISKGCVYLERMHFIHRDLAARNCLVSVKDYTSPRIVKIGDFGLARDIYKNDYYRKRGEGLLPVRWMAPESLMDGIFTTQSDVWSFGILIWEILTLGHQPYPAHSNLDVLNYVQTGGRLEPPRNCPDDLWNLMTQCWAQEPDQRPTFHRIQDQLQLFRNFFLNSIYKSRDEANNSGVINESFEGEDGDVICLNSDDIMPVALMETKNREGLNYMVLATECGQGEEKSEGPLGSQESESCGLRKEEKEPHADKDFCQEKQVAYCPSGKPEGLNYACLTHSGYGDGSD

A word on the IC50: it is the concentration needed to halve the response being measured. `Cc1ccc([C@@H]2CCCN2c2cc(-c3cnn(C)c3)cc(Nc3ncns3)n2)cc1` [Example 69, 6-[(2S)-2-(4-Methylphenyl)pyrrolidin-1-yl]-4-(1-methyl-1H-pyrazol-4-yl)-N-(1,2,4-thiadiazol-5-yl)pyridine-2-amine]: the GI50 in assay [1] stood at 6.9 nM. In addition, the IC50 in assay [2] was 17 nM; in assay [3] it was 11 nM.
For `COc1cnc(N2CCCC2c2ccc(C)cc2)nc1Nc1ncc(C#N)s1` (stereo not drawn) [Example 19, 2-({5-Methoxy-2-[2-(4-methylphenyl)pyrrolidin-1-yl]pyrimidin-4-yl}amino)-1,3-thiazole-5-carbonitrile] the same measures were 2.9 nM, 220 nM and 2.6 nM.
For `N#Cc1cnc(Nc2nc(N3CCCC3c3ccc(F)cc3)cnc2-c2ccncc2)s1` (stereo not drawn) [Example 26, 2-({6-[2-(4-Fluorophenyl)pyrrolidin-1-yl]-3-(pyridin-4-yl)pyrazin-2-yl}amino)-1,3-thiazole-5-carbonitrile] the same measures were 10 nM, over 1000 nM and 12 nM.
On the same counts, the results for `COc1c(C)nc(N2CCC[C@H]2c2ccc(C)cc2)nc1Nc1ncc(F)s1` [Example 56, N-(5-Fluoro-1,3-thiazol-2-yl)-5-methoxy-6-methyl-2-[(2S)-2-(4-methylphenyl)pyrrolidin-1-yl]pyrimidine-4-amine] are 8.2 nM, over 1000 nM and 6.7 nM.
Turning to `COc1ccc(-c2nc(N3CCCC3c3ccc(C)cc3)nc(Nc3ncc(C#N)s3)c2C)cn1` (stereo not drawn) [Example 15, 2-({6-(6-Methoxypyridin-3-yl)-5-methyl-2-[2-(4-methylphenyl)pyrrolidin-1-yl]pyrimidin-4-yl}amino)-1,3-thiazole-5-carbonitrile], in assay [1], the GI50 was found to be 20 nM. The values for the 50% inhibitory concentration (IC50) in assay [2] and in assay [3] were over 1000 nM and 16 nM, respectively.
Turning to `Cc1ccc([C@@H]2CCCN2c2nc(Nc3ncc(C#N)s3)c(C)c(C(=O)NC3CCN(C)CC3)n2)cc1` [Example 54, 6-[(5-Cyano-1,3-thiazol-2-yl)amino]-5-methyl-2-[(2S)-2-(4-methylphenyl)pyrrolidin-1-yl]-N-(l-methylpiperidin-4-yl)pyrimidine-4-carboxamide], the GI50 in assay [1] stood at 0.4 nM. Also, the 50% inhibitory concentration (IC50) in assay [2] came to 190 nM; in assay [3], 3.9 nM.
On the same counts, the results for `CCc1c(Nc2ncc(C#N)s2)nc(N2CCC[C@H]2c2ccc(C)cc2)nc1C(=O)NS(C)(=O)=O` [Example 67, 6-[(5-Cyano-1,3-thiazol-2-yl)amino]-5-ethyl-2-[(2S)-2-(4-methylphenyl)pyrrolidin-1-yl]-N-(methylsulfonyl)pyrimidine-4-carboxamide] are 2.1 nM, 370 nM and 1.5 nM.
For `CC(=O)N1CCc2nc(N3CCC[C@H]3c3ccc(C)cc3)nc(Nc3ncc(C#N)s3)c2C1` [Example 71, 2-({6-Acetyl-2-[(2S)-2-(4-methylphenyl)pyrrolidin-1-yl]-5,6,7,8-tetrahydropyrido[4,3-d]pyrimidin-4-yl}amino)-1,3-thiazole-5-carbonitrile] the same measures were 2 nM, 150 nM and 1.2 nM.
In the case of `COc1c(Nc2ncc(C#N)s2)nc(N2CCC[C@H]2c2ccc(C)cc2)nc1C(=O)N[C@H]1CC[C@H](C(=O)O)CC1` [Example 63, Trans-4-[({6-[(5-cyano-1,3-thiazol-2-yl)amino]-5-methoxy-2-[(2S)-2-(4-methylphenyl)pyrrolidin-1-yl]pyrimidin-4-yl}carbonyl)amino]cyclohexanecarboxylic acid], the GI50 in assay [1] was found to be 3.5 nM. In addition, the 50% inhibitory concentration (IC50) was determined as 120 nM in assay [2] and 0.3 nM in assay [3].
For `COc1c(Nc2ncc(C#N)s2)nc(N2CCCC2c2ccc(C)cc2)nc1-c1ccc(S(C)(=O)=O)cc1` (stereo not drawn) [Example 13, 2-({5-Methoxy-2-[2-(4-methylphenyl)pyrrolidin-1-yl]-6-[4-(methylsulfonyl)phenyl]pyrimidin-4-yl}amino)-1,3-thiazole-5-carbonitrile] the same measures were 3.5 nM, at least 1000 nM and 44 nM.
On the same counts, the results for `CCc1c(C)nc(N2CCC[C@H]2c2ccc(C)cc2)nc1Nc1ncc(C#N)s1` [Example 70, 2-({5-Ethyl-6-methyl-2-[(2S)-2-(4-methylphenyl)pyrrolidin-1-yl]pyrimidin-4-yl}amino)-1,3-thiazole-5-carbonitrile maleate] are 1.7 nM, over 1000 nM and 2.9 nM.
For `COc1cc(OC)cc(C2CCCN2c2cncc(Nc3ncc(C#N)s3)n2)c1` (stereo not drawn) [Example 32, 2-({6-[2-(3,5-Dimethoxyphenyl)pyrrolidin-1-yl]pyrazin-2-yl}amino)-1,3-thiazol-5-carbonitrile] the same measures were 33 nM, over 1000 nM and 4.4 nM.
For the molecule `CNC(=O)c1cc(N2CCC[C@H]2c2ccc(C)cc2)nc(Nc2ncc(C#N)s2)c1C` [Example 55, 2-[(5-Cyano-1,3-thiazol-2-yl)amino]-N,3-dimethyl-6-[(2S)-2-(4-methylphenyl)pyrrolidin-1-yl]pyridine-4-carboxamide], the GI50 in assay [1] came to 0.3 nM. For the same molecule, the half-maximal inhibitory concentration (IC50) worked out at 24 nM in assay [2] and 0.6 nM in assay [3].
Regarding `COc1c(Nc2ncc(C#N)s2)nc(N2CCC[C@H]2c2ccc(C)cc2)nc1-c1ccc(O)nc1` [Example 65, 2-({6-(6-Hydroxypyridin-3-yl)-5-methoxy-2-[(2S)-2-(4-methylphenyl)pyrrolidin-1-yl]pyrimidin-4-yl}amino)-1,3-thiazole-5-carbonitrile], the GI50 in assay [1] was 1.9 nM. In addition, the IC50 is 260 nM in assay [2] and 1.3 nM in assay [3].
On the same counts, the results for `Cc1ccc(C2CCCN2c2nc(Nc3ncc(C#N)s3)cc(C(=O)N[C@H](C)CO)n2)cc1` (stereo partly drawn) [Example 12, 6-[(5-Cyano-1,3-thiazol-2-yl)amino]-N-[(2R)-1-hydroxypropan-2-yl]-2-[2-(4-methylphenyl)pyrrolidin-1-yl]pyrimidine-4-carboxamide] are 24 nM, 540 nM and 21 nM.
For `CCOC(=O)c1cnc(Nc2cncc(N3CCCC3c3ccc(C)cc3)n2)s1` (stereo not drawn) [Example 51, Ethyl 2-({6-[2-(4-methylphenyl)pyrrolidin-1-yl]pyrazin-2-yl}amino)-1,3-thiazole-5-carboxylate] the same measures were 160 nM, 930 nM and 88 nM.
For the molecule `COCCNC(=O)c1nc(N2CCC[C@H]2c2ccc(C)cc2)nc(Nc2ncc(C#N)s2)c1OC` [Example 64, 6-[(5-Cyano-1,3-thiazol-2-yl)amino]-5-methoxy-N-(2-methoxyethyl)-2-[(2S)-2-(4-methylphenyl)pyrrolidin-1-yl]pyrimidine-4-carboxamide], the GI50 in assay [1] stood at 1.5 nM. For the same molecule, the IC50 in assay [2] is over 1000 nM; in assay [3] it was 2.6 nM.
